Assay results as given in US9388139B2, “Derivatives of celeboxib, use thereof and preparation thereof” (German University, priority 2011, dated 2016).
Like-named read-outs stand apart in the source and are kept apart here.

Assays:
recombinant human PDE5 = recombinant human PDE5 (Homo sapiens (Human), UniProt O76074); assay: PDE5 inhibition, IMAP fluorescence polarization assay; type: biochemical; conditions: read-out: IC50 μM against PDE5
Protocol: (§1) Compounds according to the present disclosure were tested for their in vitro ability to inhibit recombinant human PDE5, COX1 and COX2 enzymes at screening doses of 50, 100 and 100 μM respectively.
PDE activity was measured using the IMAP fluorescence polarization assay (Molecular Devices) in which binding of hydrolyzed cyclic nucleotide substrate to immobilized metal coordination complexes increases fluorescence polarization (FP). Tetramethylrhodamine (TAMRA)-cGMP and fluorescein-cAMP were used as substrates, each at final concentration of 50 nmol/L. The PDE assay was done according to the manufacturer's specifications using either whole cell lysates or recombinant enzymes.

COX2 = COX2 (Ovis aries (Sheep), UniProt P79208); assay: COX-2 activity, colorimetric assay; type: biochemical, ovine; conditions: screening dose 100 μM; read-out: IC50 μM against COX2
Chain of COX2 (P79208 17-603): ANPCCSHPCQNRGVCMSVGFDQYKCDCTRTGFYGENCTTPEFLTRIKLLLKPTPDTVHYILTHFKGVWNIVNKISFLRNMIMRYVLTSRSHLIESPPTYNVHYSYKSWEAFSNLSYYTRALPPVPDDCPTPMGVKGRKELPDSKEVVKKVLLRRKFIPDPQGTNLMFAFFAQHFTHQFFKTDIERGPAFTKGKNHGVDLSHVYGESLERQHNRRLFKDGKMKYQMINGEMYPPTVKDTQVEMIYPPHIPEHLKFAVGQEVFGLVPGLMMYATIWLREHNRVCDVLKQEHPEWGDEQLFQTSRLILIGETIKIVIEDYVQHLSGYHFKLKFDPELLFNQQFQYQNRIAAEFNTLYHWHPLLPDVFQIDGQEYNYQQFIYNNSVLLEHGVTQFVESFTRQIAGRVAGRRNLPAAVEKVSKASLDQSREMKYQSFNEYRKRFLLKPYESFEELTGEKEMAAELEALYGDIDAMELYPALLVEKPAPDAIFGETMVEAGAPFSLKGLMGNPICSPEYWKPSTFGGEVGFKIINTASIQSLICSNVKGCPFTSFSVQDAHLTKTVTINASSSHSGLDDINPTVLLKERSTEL
Protocol: as §1
(§2) COX-1 and COX-2 activities were measured using purified ovine COX-1 and COX-2 with colorimetric assay kits obtained from Cayman Chemical Co. (Ann Arbor, Mich.). The activities of COX-1 and COX-2 were measured after the addition of arachidonic acid and incubation at 25° C. for 5 min by absorbance at 590 nm as specified by the manufacturer.

COX1 = COX1 (Ovis aries (Sheep), UniProt P05979); assay: COX-1 activity, colorimetric assay; type: biochemical, ovine; conditions: screening dose 100 μM; read-out: IC50 μM against COX1
Chain of COX1 (P05979 25-600): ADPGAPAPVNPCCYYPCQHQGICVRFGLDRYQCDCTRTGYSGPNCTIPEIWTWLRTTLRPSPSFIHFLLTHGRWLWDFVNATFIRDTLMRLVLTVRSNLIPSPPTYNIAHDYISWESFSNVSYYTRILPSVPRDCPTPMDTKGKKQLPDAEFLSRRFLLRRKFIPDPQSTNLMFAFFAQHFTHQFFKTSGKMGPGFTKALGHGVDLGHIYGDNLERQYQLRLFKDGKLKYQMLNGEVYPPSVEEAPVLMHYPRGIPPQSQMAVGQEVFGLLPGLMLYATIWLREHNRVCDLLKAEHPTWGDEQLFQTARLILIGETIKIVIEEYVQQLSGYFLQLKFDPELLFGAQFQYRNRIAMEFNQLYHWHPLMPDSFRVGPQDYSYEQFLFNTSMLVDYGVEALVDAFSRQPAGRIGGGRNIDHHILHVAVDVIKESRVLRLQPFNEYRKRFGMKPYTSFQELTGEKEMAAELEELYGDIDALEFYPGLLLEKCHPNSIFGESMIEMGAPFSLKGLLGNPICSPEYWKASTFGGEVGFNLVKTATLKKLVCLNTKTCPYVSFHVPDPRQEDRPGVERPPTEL
Protocol: as §1, §2

[1] = test system: human breast MDA-MB-231 tumor cell line; assay: Tumor cell growth assay (Cell Titer Glo); type: cell-based; conditions: read-out: IC50 μM against MDA-MB-231
[2] = test system: human colorectal HT-29 tumor cell line; assay: Tumor cell growth assay (Cell Titer Glo); type: cell-based; conditions: read-out: IC50 μM against HT-29
[3] = recombinant human PDE5, IC50 determined if inhibition >50% at 50 μM screening dose

Row | Structure (SMILES) | IC50 (recombinant human PDE5; [3]) | IC50 (COX2) | IC50 (COX1) | IC50 ([1]; MDA-MB-231, 72 hours) | IC50 ([2]; HT-29, 72 hours) | IC50 ([1]; 72 hours) | IC50 ([2]; 72 hours) | IC50 (recombinant human PDE5)
1 | COc1ccc(C2CC(C(C)(C)C)=NN2c2ccc(C(=O)O)cc2)cc1 (stereo not shown) [Compound 1, 4-(3-tert-Butyl-5-(4-methoxyphenyl)-4,5-dihydro-1H-pyrazol-1-yl)benzoic acid] | 2.02 µM | > 100 µM | > 100 µM | > 50 µM | > 50 µM | – | – | –
2 | CC(C)(C)C1=NN(c2ccc(C(=O)O)cc2)C(c2ccc([N+](=O)[O-])cc2)C1 (stereo not shown) [Compound 2, 4-(3-tert-Butyl-5-(4-nitrophenyl)-4,5-dihydro-1H-pyrazol-1-yl)benzoic acid] | 5.7 µM | > 100 µM | > 100 µM | > 50 µM | > 50 µM | – | – | –
3 | CC(C)(C)C1=NN(c2ccc(C(=O)O)cc2)C(c2cccc([N+](=O)[O-])c2)C1 (stereo not shown) [Compound 3, 4-(3-tert-Butyl-5-(3-nitrophenyl)-4,5-dihydro-1H-pyrazol-1-yl)benzoic acid] | 3.2 µM | > 100 µM | > 100 µM | – | – | > 50 µM | > 50 µM | –
4 | COc1ccc(C2CC(C(C)(C)C)=NN2c2ccc(C(=O)O)cc2)c(OC)c1 (stereo not shown) [Compound 4, 4-(3-tert-Butyl-5-(2,4-dimethoxyphenyl)-4,5-dihydro-1H-pyrazol-1-yl)benzoic acid] | – | > 100 µM | > 100 µM | > 50 µM | > 50 µM | – | – | 23.5 µM
5 | CC(C)(C)C1=NN(c2ccc(C(=O)O)cc2)C(c2ccc(O)cc2)C1 (stereo not shown) [Compound 5, 4-(3-tert-Butyl-5-(4-hydroxyphenyl)-4,5-dihydro-1H-pyrazol-1-yl)benzoic acid] | 2.1 µM | > 100 µM | > 100 µM | > 50 µM | > 50 µM | – | – | –
6 | CC(C)(C)C1=NN(c2cccc(C(=O)O)c2)C(c2ccc(Cl)cc2)C1 (stereo not shown) [Compound 6, 3-(3-tert-Butyl-5-(4-chlorophenyl)-4,5-dihydro-4H-pyrazol-1-yl)benzoic acid] | 9.9 µM | > 100 µM | > 100 µM | > 50 µM | 39.9 µM | – | – | –
7 | COc1ccc(C2CC(c3ccccc3)=NN2c2ccc(C(=O)O)cc2)cc1 (stereo not shown) [Compound 7, 4-(5-(4-Methoxyphenyl)-3-phenyl-4,5-dihydro-1H-pyrazol-1-yl)benzoic acid] | 1.2 µM | > 100 µM | > 100 µM | 48 µM | 36.7 µM | – | – | –
8 | COc1ccc(C2CC(c3ccccc3OC)=NN2c2ccc(C(=O)O)cc2)cc1 (stereo not shown) [Compound 8, 4-(3-(2-Methoxyphenyl)-5-(4-methoxyphenyl)-4,5-dihydro-1H-pyrazol-1-yl)benzoic acid] | 3.2 µM | > 100 µM | > 100 µM | > 50 µM | > 50 µM | – | – | –
9 | COc1ccc(C2CC(c3cccc(OC)c3)=NN2c2ccc(C(=O)O)cc2)cc1 (stereo not shown) [Compound 9, 4-(3-(3-Methoxyphenyl)-5-(4-methoxyphenyl)-4,5-dihydro-1H-pyrazol-1-yl)benzoic acid] | 1.8 µM | > 100 µM | > 100 µM | 45.6 µM | 25.9 µM | – | – | –
10 | COc1ccc(C2CC(c3ccc(OC)c(OC)c3)=NN2c2ccc(C(=O)O)cc2)cc1 (stereo not shown) [Compound 10, 4-(3-(3,4-Dimethoxyphenyl)-5-(4-methoxyphenyl)-4,5-dihydro-1H-pyrazol-1-yl)benzoic acid] | 6.9 µM | > 100 µM | > 100 µM | > 50 µM | 42.5 µM | – | – | –
11 | COc1ccc(C2CC(c3ccccc3)=NN2c2ccc(S(N)(=O)=O)cc2)cc1 (stereo not shown) [Compound 11, 4-(5-(4-Methoxyphenyl)-3-phenyl-4,5-dihydro-1H-pyrazol-1-yl)benzenesulfonamide] | 3.8 µM | > 100 µM | > 100 µM | 27.6 µM | 15.6 µM | – | – | –
12 | CC(C)(C)C1=NN(c2ccc(C(=O)O)cc2)C(c2ccc(Cl)c(Cl)c2)C1 (stereo not shown) [Compound 13, 4-(3-(tert-Butyl)-5-(3,4-dichlorophenyl)-4,5-dihydro-1H-pyrazol-1-yl)benzoic acid] | 5.5 µM | > 100 µM | > 100 µM | > 50 µM | 25.7 µM | – | – | –
13 | CC(C)(C)C1=NN(c2ccc(C(=O)O)cc2)C(c2ccccc2Br)C1 (stereo not shown) [Compound 14, 4-(5-(2-Bromophenyl)-3-(tert-butyl)-4,5-dihydro-1H-pyrazol-1-yl)benzoic acid] | 6.9 µM | > 100 µM | > 100 µM | > 50 µM | 39.6 µM | – | – | –
14 | CCOc1ccc(C2CC(C(C)(C)C)=NN2c2ccc(C(=O)O)cc2)cc1 (stereo not shown) [Compound 15, 4-(3-(tert-Butyl)-5-(4-ethoxyphenyl)-4,5-dihydro-1H-pyrazol-1-yl)benzoic acid] | 2.9 µM | > 100 µM | > 100 µM | > 50 µM | 6 µM | – | – | –
15 | CC(C)(C)C1=NN(c2ccc(C(=O)O)cc2)C(c2cccc(Br)c2)C1 (stereo not shown) [Compound 16, 4-(5-(3-Bromophenyl)-3-(tert-butyl)-4,5-dihydro-1H-pyrazol-1-yl)benzoic acid] | 3.1 µM | > 100 µM | > 100 µM | > 50 µM | 8.8 µM | – | – | –
16 | CC(C)(C)C1=NN(c2ccc(C(=O)O)cc2)C(c2ccccc2Cl)C1 (stereo not shown) [Compound 17, 4-(3-(tert-Butyl)-5-(2-chlorophenyl)-4,5-dihydro-1H-pyrazol-1-yl)benzoic acid] | 1.9 µM | > 100 µM | > 100 µM | > 50 µM | 20.8 µM | – | – | –
17 | CC(C)(C)C1=NN(c2ccc(C(=O)O)cc2)C(c2ccccc2F)C1 (stereo not shown) [Compound 18, 4-(3-(tert-Butyl)-5-(2-fluorophenyl)-4,5-dihydro-1H-pyrazol-1-yl)benzoic acid] | 3.3 µM | > 100 µM | > 100 µM | > 50 µM | > 50 µM | – | – | –
18 | CC(C)(C)C1=NN(c2ccc(C(=O)O)cc2)C(c2cccc(F)c2)C1 (stereo not shown) [Compound 19, 4-(3-(tert-Butyl)-5-(3-fluorophenyl)-4,5-dihydro-1H-pyrazol-1-yl)benzoic acid] | 2.7 µM | > 100 µM | > 100 µM | > 50 µM | > 50 µM | – | – | –
19 | CCOc1ccccc1C1CC(C(C)(C)C)=NN1c1ccc(C(=O)O)cc1 (stereo not shown) [Compound 20, 4-(3-(tert-Butyl)-5-(2-ethoxyphenyl)-4,5-dihydro-1H-pyrazol-1-yl)benzoic acid] | 2 µM | > 100 µM | > 100 µM | – | – | > 50 µM | 22 µM | –
20 | CC(C)(C)C1=NN(c2ccc(C(=O)O)cc2)C(c2ccc(Cl)cc2)C1 (stereo not shown) [Compound 21, 4-(3-tert-Butyl-5-(4-chlorophenyl)-4,5-dihydro-1H-pyrazol-1-yl)benzoic acid] | 8.7 µM | > 100 µM | > 100 µM | > 50 µM | > 50 µM | – | – | –
21 | CC(C)(C)C1=NN(c2ccc(C(=O)O)cc2)C(c2ccccc2)C1 (stereo not shown) [Compound 22, 4-(3-tert-Butyl-5-phenyl-4,5-dihydro-1H-pyrazol-1-yl)benzoic acid] | 6.22 µM | > 100 µM | > 100 µM | > 50 µM | > 50 µM | – | – | –
22 | Cc1ccc(C2CC(C(C)(C)C)=NN2c2ccc(C(=O)O)cc2)cc1 (stereo not shown) [Compound 23, 4-(3-tert-Butyl-5-p-tolyl-4,5-dihydro-1H-pyrazol-1-yl)benzoic acid] | 8.4 µM | > 100 µM | > 100 µM | > 50 µM | > 50 µM | – | – | –
23 | CC(C)(C)C1=NN(c2ccc(C(=O)O)cc2)C(c2ccc(Br)cc2)C1 (stereo not shown) [Compound 24, 4-(5-(4-Bromophenyl)-3-tert-butyl-4,5-dihydro-1H-pyrazol-1-yl)benzoic acid] | 7.7 µM | > 100 µM | > 100 µM | > 50 µM | > 50 µM | – | – | –
24 | CC(C)(C)C1=NN(c2ccc(S(=O)(=O)O)cc2)C(c2ccc(F)cc2)C1 (stereo not shown) [Compound 25, 4-(3-tert-Butyl-5-(4-fluorophenyl)-4,5-dihydro-1H-pyrazol-1-yl)benzenesulfonic acid] | 3.3 µM | > 100 µM | > 100 µM | > 50 µM | > 50 µM | – | – | –
25 | CC(C)(C)C1=NN(c2ccc(S(=O)(=O)O)cc2)C(c2ccc(Cl)cc2)C1 (stereo not shown) [Compound 26, 4-(3-tert-Butyl-5-(4-chlorophenyl)-4,5-dihydro-1H-pyrazol-1-yl)benzenesulfonic acid] | 7.2 µM | > 100 µM | > 100 µM | > 50 µM | > 50 µM | – | – | –
26 | COc1ccc(C2CC(c3ccc(F)cc3)=NN2c2ccc(C(=O)O)cc2)cc1 (stereo not shown) [Compound 27, 4-(3-(4-Fluorophenyl)-5-(4-methoxyphenyl)-4,5-dihydropyrazol-1-yl)benzoic acid] | 3.1 µM | > 100 µM | > 100 µM | > 50 µM | > 50 µM | – | – | –
